The values below come from US8378134B2, “Hydroxylated contrast enhancement agents” (General Electric Company, priority 2009, dated 2013).

The nature of this series: Relaxivity determinations (T1 and T2 relaxation times, Bruker Minispec mq60). Type of series: physicochemical. The following applies: in PBS, 0.25-1 mM Fe chelate, 60 MHz, 40° C.; gradient of 1/T1 vs Fe chelate concentration. The procedure:
A stock solution having a concentration of 1 mM of the contrast enhancement agent was prepared in phosphate buffered saline (PBS) and the iron concentration was verified by elemental analysis. Separate 0.75 mM, 0.50 mM and 0.25 mM samples were prepared from the stock by dilution in PBS and the T1 and T2 relaxations times were recorded in triplicate for each using sample on a Bruker Minispec mq60 instrument (60 MHz, 40° C.). The relaxivities (r1 and r2) were obtained as the gradient of 1/Tx (x=1,2) plotted against Fe chelate concentration following linear least squares regression analysis. Data for contrast enhancement agents having structures III, IV, V, VI, VII, and VII, and a non-hydroxylated control contrast enhancement agent.
As for FeHBED(Me)2(OH)2 [III], the r1 relaxivity was 0.9 mM⁻¹ s⁻¹.
The substance FeHBED(OH')2 [VII] registered a r1 relaxivity of 1.0 mM⁻¹ s⁻¹.
Substance FeHBED(OH)2 [IV] displayed a r1 relaxivity of 0.8 mM⁻¹ s⁻¹.
Consider FeHBED(OH) [VI], for which the r1 relaxivity came out at 1.1 mM⁻¹ s⁻¹.
